Experimental data from patent US8343475B2, “Small cationic antimicrobial peptides” (priority 2006, dated 2013).
Converted amounts (≈) assume the structure as drawn. Residues, ends and D or L forms follow the SMILES beside them.

Key:
Assay type in all cases: cell-based
[1] = test system: Pseudomonas aeruginosa PAO1 strain H103; conditions: PAO1
Method in brief: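 Modified broth microdilution MIC in Mueller Hinton medium, peptides diluted in 0.01% acetic acid/0.2% BSA, polypropylene plates. Inoculum 2-7×10^5 CFU/ml, overnight at 37 °C; MIC is the lowest concentration with no visible growth.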

[2] = test system: Staphylococcus aureus ATCC25923; conditions: ATCC25923
Method in brief: (§1)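 MIC by modified broth microdilution in Mueller Hinton medium. Peptides were diluted in 0.01% acetic acid with 0.2% BSA and added at 10× to inoculum of 2-7×10^5 CFU/ml, then incubated overnight at 37 °C. MIC is the lowest concentration with no visible growth.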

[3] = test system: clinical isolate of Staphylococcus epidermidis; conditions: clinical isolate of
Method in brief: as §1

[4] = test system: lab isolate of Candida albicans; conditions: lab isolate of
Method in brief: as §1

Escherichia coli UB1005 = conditions: UB1005
Method in brief: as §1

[5] = test system: Enterococcus faecalis ATCC29212; conditions: ATCC29212
Method in brief: as §1

[6] = test system: wild-type Salmonella enterica ssp. typhimurium
Method in brief: as §1

human PBMC = assay: Adjuvant properties: cytokine/chemokine induction by peptides alone and with CpG oligonucleotides and polyphosphazene P6; conditions: peptide alone 20 ug/mL, background subtracted
Experimental: (§2) Venous blood (20 ml) from healthy volunteers was collected in Vacutainer® collection tubes containing sodium heparin as an anticoagulant (Becton Dickinson, Mississauga, ON) in accordance with UBC ethical approval and guidelines. Blood was diluted 1:1 with complete RPMI 1640 medium and separated by centrifugation over a Ficoll-Paque® Plus (Amersham Biosciences, Piscataway, N.J., USA) density gradient. White blood cells were isolated from the buffy coat, washed twice in RPMI 1640 complete medium, and the number of peripheral blood mononuclear cells (PBMC) was determined by trypan blue exclusion. PBMC (5×10^5) were seeded into 12-well tissue culture dishes (Falcon; Becton Dickinson) at 0.75 to 1×10^6 cells/ml at 37° C. in 5% CO2. The above conditions were chosen to mimic conditions for circulating blood monocytes entering tissues at the site of infection via extravasation.
(§3) Following incubation of the cells under various treatment regimens, the tissue culture supernatants were centrifuged at 1000×g for 5 min, then at 10,000×g for 2 min to obtain cell-free samples. Supernatants were aliquoted and then stored at −20° C. prior to assay for various chemokines by capture ELISA (eBioscience and BioSource International Inc., CA, USA respectively)
It is well accepted that vaccine immunization is best achieved by co-administration of an adjuvant. The precise mechanism by which these adjuvants work has eluded immunologists but appears to work in part by upregulating elements of innate immunity that smooth the transition to adaptive (antigen-specific) immunity (Bendelac A and R. Medzhitov. 2002. Adjuvants of immunity: Harnessing innate immunity to promote adaptive immunity J. Exp. Med. 195:F19-F23). Within this concept there are several possible avenues by which adjuvants might work including the attraction of immune cells into the site at which a particular antigen is injected, through e.g., upregulation of chemokines, the appropriate activation of cells when they reach that site, which can be caused by local cell or tissue damage releasing endogenous adjuvants or through specific cell activation by the adjuvants, and the compartmentalization of immune responses to the site of immunization (the so-called “depot” effect). […] Therefore we studies the ability of our small host defence peptides to upregulate adjuvant responses in both human PBMC and cord blood mononuclear cells (CBMC) (representing the responses of blood cells from neonates), both alone (Table 10 and 11) and in combination with other proposed adjuvant agents that might work through other mechanisms such as CpG oligodeoxy ribonucleotides (TLR9 agionists that activate cells through interaction with TLR9 and fit into 3 different classes A=molecule 2336, B=10103 and C=2395), and polyphosphazene P6 (which induces a depot effect).

[7] = test system: IL8 release by human PBMC; assay: Chemokine induction in PBMC (capture ELISA); conditions: 20 or 100 μg/ml peptide, 24 hours (FIG. 14)
Experimental: FIG. 14. Induction of IL8 release by 7.5×10^5 human PBMC in response to treatment with 20 or 100 μg/ml of different peptides for 24 hours.
as §2, §3

[8] = test system: MCP-1 release by human PBMC; assay: Chemokine induction in PBMC (capture ELISA); conditions: for Chemokine induction MCP-1: background (204) subtracted
Method in brief: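 Heparinized blood from healthy volunteers; Ficoll-isolated human PBMC (7.5×10^5) treated with peptides at 20 or 100 μg/ml for 24 hours at 37° C, 5% CO2. Cell-free supernatants assayed for MCP-1 by capture ELISA.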

[9] = test system: MCP-3 release by human PBMC; assay: Chemokine induction in PBMC (capture ELISA); conditions: background (6) subtracted
Method in brief: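 Human PBMC from healthy donors (Ficoll-isolated), 7.5×10^5 cells at 0.75–1×10^6 cells/ml, treated with peptides at 20 or 100 μg/ml for 24 h at 37° C, 5% CO2. MCP-3 in cell-free supernatants measured by capture ELISA.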

CC[C@H](C)[C@H](N)C(=O)N[C@@H](Cc1c[nH]c2ccccc12)C(=O)N[C@H](C(=O)N[C@H](C(=O)N[C@@H](Cc1c[nH]c2ccccc12)C(=O)N[C@@H](CCCNC(=N)N)C(=O)N[C@@H](CCCNC(=N)N)C(N)=O)[C@@H](C)CC)C(C)C [HH18, IWVIWRR-NH2] (H-IWVIWRR-NH2; N-terminus assumed)
MIC P. aerug [1]: 50 µg/mL (≈ 48.7 µM)
MIC S. aureus [2]: 25 µg/mL (≈ 24.3 µM)
MIC S. epi. [3]: 6 µg/mL (≈ 5.84 µM)
MIC C. albicans [4]: 25 µg/mL (≈ 24.3 µM)
MIC E. coli (Escherichia coli UB1005): 6 µg/mL (≈ 5.84 µM)
MIC E. faecalis [5]: 25 µg/mL (≈ 24.3 µM)
MIC S. typhi [6]: 12.5 µg/mL (≈ 12.2 µM)
Cytokines induced: Gro-α (human PBMC): 143 pg/mL
Cytokines induced: IL-6 (human PBMC): 180 pg/mL
Cytokines induced: IL-8 (human PBMC): 2558 pg/mL
Cytokines induced: MCP-1 (human PBMC): 64 pg/mL
Cytokines induced: MCP-3 (human PBMC): 3 pg/mL
Cytokines induced: TNF-α (human PBMC): 56 pg/mL
induction of IL8 [7]: strongest abilities to induce this chemokine
Chemokine induction MCP-1 ([8]; 20 μg/ml peptide): 1111 pg/mL
Chemokine induction MCP-1 ([8]; 100 μg/ml peptide): 9608 pg/mL
induction of MCP1 ([8]; 20 or 100 μg/ml peptide, 24 hours (FIG. 15)): induced
Chemokine induction MCP-3 ([9]; 20 μg/ml peptide): 32 pg/mL
Chemokine induction MCP-3 ([9]; 100 μg/ml peptide): 431 pg/mL
